The source of these data is patent US8772304B2, “Benzimidazole inhibitors of leukotriene production” (Boehringer Ingelheim International GmbH, priority 2010, dated 2014).

Assay [1] deals with biomarkers for myocardial infarction risk. Conditions: clinical trial; cited from earlier work.
Assay [2] relates to synthesis of LTB4 in human whole blood. Nature of the assay: human whole blood LTB4 production inhibition assay. In kind it is cell-based. The note with it: heparinized human whole blood, calcimycin 20 μM stimulation, plasma LTB4; read-out: hWB IC50. On the procedure:
Compounds are additionally tested in a human whole blood assay to determine their ability to inhibit the synthesis of LTB4 in a cellular system. Compounds are combined with heparinized human whole blood and incubated for 15 minutes at 37° C. Calcimycin (20 μM final, prepared in phosphate-buffered saline, pH 7.4) is then added and the mixture is incubated for another 30 minutes at 37° C. The samples are centrifuged for 5 min at low speed (1500×g) and the plasma layer is removed. Plasma LTB4 concentrations are then measured using an antibody-based homogenous time-resolved fluorescence method (CisBio, Bedford, Mass.).

Assay [3] has as its target recombinant human FLAP protein (Homo sapiens (Human), UniProt P20292). Put plainly: FLAP binding assay (Scintillation Proximity Assay, displacement of iodinated FLAP inhibitor). Conditions: displacement of [125I]L-691,831; membranes of sf9 cells expressing recombinant human FLAP; read-out: hFLAP binding IC50. Here is the method: Compounds are assessed for the ability to bind to FLAP in a binding assay that measures compound-specific displacement of an iodinated (^125I) FLAP inhibitor via a Scintillation Proximity Assay format (adapted from S. Charleson et al., Mol. Pharmacol., 1992, 41, 873-879).
Cell pellets produced from sf9 insect cells expressing recombinant human FLAP protein are resuspended in buffer A [15 mM Tris-HCl (pH 7.5), 2 mM MgCl2, 0.3 mM EDTA, 1 mM PMSF]. The cells are lysed with a Dounce homogenizer and the material is centrifuged at 10,000×g for 10 minutes. The supernatant is then collected and centrifuged at 100,000×g for 60 minutes. To prepare membrane protein for an assay, an aliquot of the 100,000×g pellet is resuspended in 1 ml of buffer A, Dounce homogenized, and finally subjected to polytron mixing (30 seconds). Membrane protein (25 μl, 5 μg) is mixed with WGA SPA beads (Amersham) and stirred for 1 h. […] (final concentrations: beads, 200 μg/well; protein, 5 μg/well; [^125I] probe, 0 08 nM/well (17 nCi/well). The plates are shaken for 2 h before reading on a Microbeta plate reader. Non-specific binding is determined by the addition of 10 μM cold L-691,831 compound.
(Scintillation proximity formats need no separation of bound from free tracer.)

The next assay has as its system proteinuria. Conditions: clinical trial, human glomerulonephritis; cited from earlier work.
Assay [4] relates to atherosclerotic plaque. The note with it: oral dosing, apoE/LDL-R double knockout mice, high-fat diet from 2 to 6 months of age; cited from earlier work.
Assay [5] deals with atherosclerotic plaque. The note with it: infusion, ApoE−/−xCD4dnTβRII mice, treated for four weeks; cited from earlier work.

Molecules are shown by their SMILES.

Chain of recombinant human FLAP protein (P20292 whole entry): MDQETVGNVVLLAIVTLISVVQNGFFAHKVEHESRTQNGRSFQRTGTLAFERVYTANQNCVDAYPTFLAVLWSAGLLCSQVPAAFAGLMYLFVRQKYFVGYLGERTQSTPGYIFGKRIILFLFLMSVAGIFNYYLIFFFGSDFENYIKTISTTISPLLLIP

Consider `O=C(O)[C@@H](c1ccc(OCc2ccc3ccccc3n2)cc1)C1CCCC1` [DG-031], for which the “effect on biomarkers for myocardial infarction risk” value in assay [1] is on record as “dose-dependent suppression of several biomarkers”. What is called IC50 is the concentration that inhibits the measured activity by half. Take `Cc1ncn(-c2ccc(C#N)nc2-c2nc3cc(-c4cnc(N)nc4)ccc3n2C2(C)CCC2)n1` [Example 5, 6-[5-(2-Amino-pyrimidin-5-yl)-1-(1-methyl-cyclobutyl)-1H-benzimidazol-2-yl]-5-(3-methyl-1,2,4-triazol-1-yl)-pyridine-2-carbonitrile]: the results for the half-inhibitory concentration (IC50) in assay [2] and in assay [3] were 256 nM and 29 nM, respectively.

As to `CC(C)(C)Sc1c(CC(C)(C)C(=O)O)n(Cc2ccc(Cl)cc2)c2ccc(OCc3ccc4ccccc4n3)cc12` [MK-591], the effect on proteinuria result in the assay with proteinuria is listed as “reduce proteinuria”. Turning to `CC(C)c1ccc2c(c1)c(SC(C)(C)C)c(CC(C)(C)C(=O)O)n2Cc1ccc(Cl)cc1` [MK-886], in the assay on atherosclerotic plaque [4], the “decrease in plaque coverage in the aorta” value is given as 56% and the “decrease in plaque coverage in the aortic root” value is on record as 43%. Besides, in the assay with atherosclerotic plaque [5], the “decrease in plaque area in the aortic root” value is approximately 40%. As for `COc1cc(-c2nc3cc(-c4cnc(N)nc4)ccc3n2C(C)(C)C)c(F)cn1` [Example 17, 5-[1-tert-Butyl-2-(5-fluoro-2-methoxy-pyridin-4-yl)-1H-benzimidazol-5-yl]-pyrimidin-2-ylamine], the IC50 in assay [2] and in assay [3] was 58 nM each time. For the molecule `CC(C)(C)n1c(-c2cc(Cl)cnc2-n2cncn2)nc2cc(-c3cnc(N)nc3)ccc21` [Example 22, 5-[1-tert-Butyl-2-(5-chloro-2-1,2,4-triazol-1-yl-pyridin-3-yl)-1H-benzimidazol-5-yl]-pyrimidin-2-ylamine], the IC50 in assay [2] amounted to 116 nM; in assay [3], 3.2 nM. The corresponding values for `CNC(=O)c1ccc(C#N)nc1-c1nc2cc(-c3cnc(N)nc3)ccc2n1C(C)(C)C` [Example 10, 2-[5-(2-Amino-pyrimidin-5-yl)-1-tert-butyl-1H-benzimidazol-2-yl]-6-cyano-N-methyl-nicotinamide] are 422 nM and 138 nM.
